From the supplement of paper PMC10627819

Tests used:
[1] = system: S. aureus Newman; experiment: Bliss interaction score (quartile over a dose matrix) (fitness difference); higher = more antagonism (negative = synergy)
In short: (§1)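 Fitness was derived from optical density at entry into stationary phase, divided by the robust mean of the no-drug wells on the same plate. That reading was taken as OD595, and the ratio was capped at 1. Single-drug fitness was inferred from the combination data. The Bliss score, observed fitness minus the expected product of single-drug fitness, was summarised as quartiles over technical, biological and donor/recipient replicates.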

[2] = system: B. subtilis 168; experiment: as above
In short: as §1

[3] = system: S. aureus DSM 20231; experiment: as above
In short: as §1

[4] = system: S. pneumoniae D39V; experiment: as above
In short: as §1

[5] = system: B. subtilis 168; experiment: fitness (endpoint OD595 vs no drug) (fraction); higher = more growth
In short: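 Fitness expresses the optical density reached at the stationary-phase transition as a fraction of the robust mean of no-drug control wells. It is capped at 1. Measurements were OD595 every 30 min for 14 h at 37 °C after inoculation of 384-well plates at OD595 0.01 (30 µl, or 55 µl for S. pneumoniae), minus the first reading.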
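Throughout, for Bliss interaction score (quartile over a dose matrix): first quartile when negative (synergy) and third quartile when positive (antagonism).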

CO[C@@H]1[C@@H](OC(N)=O)[C@@H](O)[C@H](Oc2ccc3c(O)c(NC(=O)c4ccc(O)c(CC=C(C)C)c4)c(=O)oc3c2C)OC1(C)C [Novobiocin] + Cc1onc(-c2ccccc2)c1C(=O)N[C@@H]1C(=O)N2[C@@H]1SC(C)(C)[C@@H]2C(=O)O [Oxacillin]
Conditions	Bliss interaction score
[1]	-0.0672
[2]	0.0603
[3]	0.0609
[4]	-0.0758

fitness, [5]
Conditions	first compound 0.0125 µg/mL	first compound 0.025 µg/mL	first compound 0.05 µg/mL
partner 0.002 µg/mL	0.988	0.974	≥ 1
partner 0.004 µg/mL	0.949	0.926	≥ 1
partner 0.008 µg/mL	0.946	0.895	≥ 1

fitness, [5], one replicate
Conditions	first compound 0.05 µg/mL	first compound 0.1 µg/mL	first compound 0.125 µg/mL	first compound 0.2 µg/mL	first compound 0.25 µg/mL	first compound 0.5 µg/mL
partner 0.0078 µg/mL	–	–	0.997	–	0.968	0.547
partner 0.0155 µg/mL	–	–	0.952	–	0.948	0.498
partner 0.031 µg/mL	–	–	0.848	–	0.798	0.289
partner 0.075 µg/mL	0.673	0.672	–	0.734	–	–
partner 0.15 µg/mL	0.0266	0.0276	–	0.0165	–	–
partner 0.3 µg/mL	0.0465	0.036	–	0.0154	–	–

CC[C@H](C)[C@H](N)C1=N[C@H](C(=O)N[C@@H](CC(C)C)C(=O)N[C@H](CCC(=O)O)C(=O)N[C@H](C(=O)N[C@H]2CCCCNC(=O)[C@H](CC(N)=O)NC(=O)[C@@H](CC(=O)O)NC(=O)[C@H](Cc3cnc[nH]3)NC(=O)[C@@H](Cc3ccccc3)NC(=O)[C@H]([C@@H](C)CC)NC(=O)[C@@H](CCCN)NC2=O)[C@@H](C)CC)CS1 [Bacitracin] + CC(=O)NC[C@H]1CN(c2ccc(N3CCOCC3)c(F)c2)C(=O)O1 [Linezolid]
main component drawn
Conditions	Bliss interaction score
[1]	-0.087
[2]	-0.0832
[3]	-0.0504
[4]	-0.0719

[5], partner 0.0625 µg/mL, one replicate, main component drawn
Conditions	fitness
first compound 37.5 µg/mL	0.823
first compound 75 µg/mL	0.749
first compound 150 µg/mL	0.3

fitness, [5], main component drawn
Conditions	first compound 37.5 µg/mL	first compound 75 µg/mL	first compound 150 µg/mL
partner 0.125 µg/mL	0.609	–	–
partner 0.25 µg/mL	–	0.13	0.0363
partner 0.5 µg/mL	0.0502	0.0304	0.0221

CC[C@H](C)[C@H](N)C1=N[C@H](C(=O)N[C@@H](CC(C)C)C(=O)N[C@H](CCC(=O)O)C(=O)N[C@H](C(=O)N[C@H]2CCCCNC(=O)[C@H](CC(N)=O)NC(=O)[C@@H](CC(=O)O)NC(=O)[C@H](Cc3cnc[nH]3)NC(=O)[C@@H](Cc3ccccc3)NC(=O)[C@H]([C@@H](C)CC)NC(=O)[C@@H](CCCN)NC2=O)[C@@H](C)CC)CS1 [Bacitracin] + CO[C@@H]1[C@@H](OC(N)=O)[C@@H](O)[C@H](Oc2ccc3c(O)c(NC(=O)c4ccc(O)c(CC=C(C)C)c4)c(=O)oc3c2C)OC1(C)C [Novobiocin]
main component drawn
Conditions	Bliss interaction score
[1]	-0.0809
[2]	0.126
[3]	-0.0399
[4]	0.0678

fitness, [5], main component drawn
Conditions	first compound 37.5 µg/mL	first compound 75 µg/mL	first compound 150 µg/mL
partner 0.0125 µg/mL	≥ 1	0.97	0.946
partner 0.025 µg/mL	0.988	≥ 1	0.941
partner 0.05 µg/mL	≥ 1	0.964	0.935

fitness, [5], one replicate, main component drawn
Conditions	partner 0.1 µg/mL	partner 0.125 µg/mL	partner 0.2 µg/mL	partner 0.25 µg/mL	partner 0.5 µg/mL
first compound 37.5 µg/mL	0.817	0.917	0.861	0.894	0.431
first compound 75 µg/mL	0.763	0.959	0.804	0.922	0.293
first compound 150 µg/mL	0.534	0.861	0.63	0.559	0.164

CO[C@@H]1[C@@H](OC(N)=O)[C@@H](O)[C@H](Oc2ccc3c(O)c(NC(=O)c4ccc(O)c(CC=C(C)C)c4)c(=O)oc3c2C)OC1(C)C [Novobiocin] + CN[C@@H]1[C@H](O)[C@H](NC)[C@H]2O[C@@]3(O)C(=O)C[C@@H](C)O[C@H]3O[C@@H]2[C@H]1O [Spectinomycin]
Conditions	Bliss interaction score
[1]	0.0698
[2]	0.075
[3]	0.0538
[4]	-0.0939

fitness, [5]
Conditions	first compound 0.0125 µg/mL	first compound 0.025 µg/mL	first compound 0.05 µg/mL
partner 2 µg/mL	0.949	0.929	0.971
partner 4 µg/mL	0.967	0.948	≥ 1
partner 8 µg/mL	0.949	0.924	0.944

fitness, [5], one replicate
Conditions	first compound 0.125 µg/mL	first compound 0.25 µg/mL	first compound 0.5 µg/mL
partner 2 µg/mL	0.898	0.779	0.526
partner 4 µg/mL	0.945	0.867	0.649
partner 8 µg/mL	0.963	0.957	0.577

CC(=O)NC[C@H]1CN(c2ccc(N3CCOCC3)c(F)c2)C(=O)O1 [Linezolid] + CO[C@@H]1[C@@H](OC(N)=O)[C@@H](O)[C@H](Oc2ccc3c(O)c(NC(=O)c4ccc(O)c(CC=C(C)C)c4)c(=O)oc3c2C)OC1(C)C [Novobiocin]
Conditions	Bliss interaction score
[1]	0.0413
[2]	0.046
[3]	0.0424
[4]	-0.123

fitness, [5], one replicate
Conditions	partner 0.05 µg/mL	partner 0.1 µg/mL	partner 0.125 µg/mL	partner 0.2 µg/mL	partner 0.25 µg/mL	partner 0.5 µg/mL
first compound 0.0625 µg/mL	0.871	0.925	–	0.885	–	–
first compound 0.125 µg/mL	–	0.595	0.846	0.554	0.727	0.578
first compound 0.25 µg/mL	–	0.0625	0.349	0.0582	0.218	0.242
first compound 0.5 µg/mL	–	–	0.069	–	0.0496	0.0575

fitness, [5]
Conditions	first compound 0.125 µg/mL	first compound 0.25 µg/mL	first compound 0.5 µg/mL
partner 0.0125 µg/mL	0.659	0.23	0.0324
partner 0.025 µg/mL	0.574	0.182	0.0304
partner 0.05 µg/mL	0.597	0.0885	0.0285

CO[C@@H]1[C@@H](OC(N)=O)[C@@H](O)[C@H](Oc2ccc3c(O)c(NC(=O)c4ccc(O)c(CC=C(C)C)c4)c(=O)oc3c2C)OC1(C)C [Novobiocin] + COc1cc(Cc2cnc(N)nc2N)cc(OC)c1OC [Trimethoprim]
Conditions	Bliss interaction score
[1]	0.0627
[2]	0.136
[3]	0.134
[4]	0.0635

fitness, [5]
Conditions	first compound 0.0125 µg/mL	first compound 0.025 µg/mL	first compound 0.05 µg/mL	first compound 0.1 µg/mL	first compound 0.2 µg/mL
partner 0.25 µg/mL	–	–	–	–	0.754
partner 0.5 µg/mL	0.566	0.525	0.502	0.492	0.554

[5], one replicate
Conditions	fitness
first compound 0.0125 µg/mL, partner 1 µg/mL	0.471
first compound 0.0125 µg/mL, partner 2 µg/mL	0.386
first compound 0.025 µg/mL, partner 1 µg/mL	0.451
first compound 0.025 µg/mL, partner 2 µg/mL	0.386
first compound 0.05 µg/mL, partner 0.1 µg/mL	0.947
first compound 0.05 µg/mL, partner 0.125 µg/mL	0.759
first compound 0.05 µg/mL, partner 0.2 µg/mL	0.794
first compound 0.05 µg/mL, partner 0.4 µg/mL	0.546
first compound 0.05 µg/mL, partner 1 µg/mL	0.521
first compound 0.05 µg/mL, partner 2 µg/mL	0.354
first compound 0.1 µg/mL, partner 0.1 µg/mL	≥ 1
first compound 0.1 µg/mL, partner 0.125 µg/mL	0.77
first compound 0.1 µg/mL, partner 0.2 µg/mL	0.797
first compound 0.1 µg/mL, partner 0.4 µg/mL	0.52
first compound 0.125 µg/mL, partner 0.125 µg/mL	0.835
first compound 0.125 µg/mL, partner 0.25 µg/mL	0.56
first compound 0.125 µg/mL, partner 0.5 µg/mL	0.479
first compound 0.2 µg/mL, partner 0.1 µg/mL	0.978
first compound 0.2 µg/mL, partner 0.125 µg/mL	0.757
first compound 0.2 µg/mL, partner 0.2 µg/mL	0.826
first compound 0.2 µg/mL, partner 0.4 µg/mL	0.474
first compound 0.25 µg/mL, partner 0.125 µg/mL	0.565
first compound 0.25 µg/mL, partner 0.25 µg/mL	0.459
first compound 0.25 µg/mL, partner 0.5 µg/mL	0.45
first compound 0.5 µg/mL, partner 0.125 µg/mL	0.424
first compound 0.5 µg/mL, partner 0.25 µg/mL	0.376
first compound 0.5 µg/mL, partner 0.5 µg/mL	0.406
